# Experimental data reported in patent publication EP1916301A1, “METHOD FOR […] USING MOLECULE ON THE RB PATHWAY AS INDEX AND MOLECULAR […]” (BANYU PHARMACEUTICAL CO., LTD., priority 2005, dated 2007).
# How the values were obtained:
# U-2 OS cell = assay: Cell cycle analysis by flow cytometry (DNA staining) after doxorubicin treatment; assay type: cell-based; details: for cell cycle arrest: 10 nM doxorubicin
# Procedure: (§1) First, the U-2 OS cell and U-2 OS shRb cell were treated with 10 nM doxorubicin. The cells were collected after 24 hours and 48 hours, and the DNA of the cells were stained with the Cycle TESTTM PLUS DNA Reagent Kit (Becton Dickinson), and an analysis was carried out by flow cytometry.
# (§2) Further, in what phase the respective cells were maintained in the cell cycle under the respective conditions is shown in Table 2. (Table 2)
# U-2 OS shRb cell = assay: Cell cycle analysis by flow cytometry (DNA staining) after doxorubicin treatment, Rb knockdown cell; assay type: cell-based
# Procedure: Into U-2 OS cells with wild-type Rb, pSuperior-puro.shRb vector was transfected using Funege 6. After the transfected cells were cultured for 24 hours, the cells were cultured such that the number of cells became about one fiftieth, and then, the cells were cultured for about two weeks in the presence of 1.0 µg/mL of puromycin. A cell that formed a colony was isolated by a cylinder cloning method. Hereinafter, the established Rb knockdown cell was referred to as U-2 OS shRb.
# as §1, §2
# [1] = 10 nM doxorubicin for 24 hours, cell having only a vector introduced (Fig. 4)
# [2] = 10 nM doxorubicin for 48 hours, cell having only a vector introduced (Fig. 5)
# [3] = 10 nM doxorubicin for 24 hours, cell having an Rb shRNA introduced (Fig. 7)
# [4] = 10 nM doxorubicin for 48 hours, cell having an Rb shRNA introduced (Fig. 8)
structure (smiles),measurement,setting,value
COc1cccc2c1C(=O)c1c(O)c3c(c(O)c1C2=O)C[C@@](O)(C(=O)CO)C[C@@H]3O[C@H]1C[C@H](N)[C@H](O)[C@H](C)O1 [doxorubicin],G1 (%),U-2 OS cell; [1],20%
same,G2/M (%),U-2 OS cell; [1],68%
same,S (%),U-2 OS cell; [1],11%
same,G1 (%),U-2 OS cell; [2],29%
same,G2/M (%),U-2 OS cell; [2],66%
same,S (%),U-2 OS cell; [2],5.4%
same,cell cycle arrest,U-2 OS cell; at 24 hours after the treatment,arrested in the G2/M phase
same,cell cycle arrest,U-2 OS cell; at 48 hours after the treatment,arrested in the G2/M phase
same,G1 (%),U-2 OS shRb cell; [3],35%
same,G2/M (%),U-2 OS shRb cell; [3],45%
same,S (%),U-2 OS shRb cell; [3],19%
same,G1 (%),U-2 OS shRb cell; [4],62%
same,G2/M (%),U-2 OS shRb cell; [4],23%
same,S (%),U-2 OS shRb cell; [4],16%
same,cell cycle arrest,"U-2 OS shRb cell; 10 nM doxorubicin, at 24 hours after the treatment",arrested in the G2/M phase
same,G2/M phase arrest,"U-2 OS shRb cell; 10 nM doxorubicin, at 48 hours after the treatment",not maintained
